Data from patent US12268757B2, “Cyclen based compounds, coordination compounds, peptides, pharmaceutical preparation, and use thereof” (USTAV ORGANICKE CHEMIE A BIOCHEMIE AV CR V.V.I., priority 2019, dated 2025).

Key:
[1] = Kinetic inertness: acid-assisted decomplexation followed by HPLC; assay type: physicochemical; conditions: pH ~2.0, 40° C.; for Peak area of intact chelate: TFA 0.08%, UV 280 nm
Protocol: Stability (kinetic inertness) of the Gd(III) building block Gd-3 prepared in Example 4 was tested by following acid-assisted decomplexation by HPLC. Isocratic elution method was used for analysis. Constant concentration of TFA (0.08%) was maintained in the mobile phase (pH ˜2.0), while methanol content was varied to tune the retention time of the analyte. With increasing retention time (i.e. time spent in the acidic medium), more decomplexation should occur and the amount of intact chelate should decrease mono-exponentially (pseudo first-order reaction conditions), while a peak of free chelator should appear in the chromatogram. The HPLC conditions were as follows: column Kinetex C18, 100×3 mm, 2.6 um; column temperature maintained at 40° C.; mobile phase: TFA (constant 0.08% vol.), MeOH (variable), water; flow-rate 0.6 mL/min; UV detection at 280 nm; injection of 2 uL of 0.5 mM sample.

[2] = Relaxivity of Gd(III) chelates; assay type: physicochemical
Protocol: Relaxivity of Gd(III) chelate Gd-6 and of a peptide Gly-Phe-(Gd-6)-Gly-NH2 have been measured at 40° C. and 0.5 T in 10 mM MOPS buffer pH=7.0. It is apparent from the data that the relaxivity of the peptide, where the Gd-6 is incorporated within the peptide chain, is higher than the relaxivity of a standalone Gd-6.

| Substance | Peak area of intact chelate ([1]; 36% methanol in mobile phase, retention time 6.894 min) [mAU · s] | Peak area of intact chelate ([1]; 37% methanol in mobile phase, retention time 6.072 min) [mAU · s] | Peak area of intact chelate ([1]; 38% methanol in mobile phase, retention time 5.570 min) [mAU · s] | Peak area of intact chelate ([1]; 39% methanol in mobile phase, retention time 5.044 min) [mAU · s] | Peak area of intact chelate ([1]; 40% methanol in mobile phase, retention time 4.632 min) [mAU · s] | Stability (kinetic inertness) under acidic conditions ([1]; with increasing retention time in TFA 0.08% mobile phase) | Relaxivity r1 at 40° C., and 0.5 T ([2]; 10 mM MOPS buffer pH=7.0, calculated r1 = R1/c) [mM⁻¹ s⁻¹] | Relaxation time T1 ([2]; 40° C., 0.5 T, 10 mM MOPS buffer pH=7.0) [ms] |
| --- | --- | --- | --- | --- | --- | --- | --- | --- |
| Gd(III) Complex of 2,2′,2″-(10-((2S,3S,4S)-1-(2-(9H-fluoren-9-yl)acetoxy)-2-carboxy-4-hydroxypyrrolidin-3-yl)-1,4,7,10-tetraazacyclododecane-1,4,7-triyl)triacetic acid [Gd-3] | 690.9 | 686.6 | 688.4 | 685.5 | 681.6 | no decrease in the peak area |  |  |
| Gd(III) Complex of 2,2′,2″-(10-((2S,3S,4S)-2-carboxy-4-hydroxypyrrolidin-3-yl)-1,4,7,10-tetraazacyclododecane-1,4,7-triyl)triacetic acid [Gd-6] |  |  |  |  |  |  | 3.5 | 1562 |
